# Measurements from patent US10941157B2, “Pesticidal compositions and uses thereof” (Gilead Apollo, LLC, priority 2015, dated 2021).
# Tests used:
# Assay type in all cases: cell-based
# [1] = test system: Fusarium virguliforme (Fv); assay: In vitro pathogen growth inhibition assay, Fv; settings: ≥90% inhibition, 48 hours vs 2% DMSO control, read-out: Compound Concentration (ppm) sufficient for ≥90% inhibition of growth, Fv
# Method in brief: (§1)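 Spores of Dm, Fv and Pc were diluted in 17% V8 liquid medium; Rs used 1.5 mm mycelial plugs in ¼ PDB. Compounds from 2.5 mg/ml DMSO stocks were combined with inoculum, growth was read by OD600 at 24 and 48 h with blank subtraction, and the reported value is the concentration giving ≥90% inhibition.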
# Rhizoctonia solani (Rs) = assay: In vitro pathogen growth inhibition assay, Rs (mycelial plugs); settings: Rhizoctonia solani, 48 h, ≥90% inhibition; mycelial plugs; 48 hours vs 2% DMSO control; read-out: Compound Concentration (ppm) sufficient for ≥90% inhibition of growth, Rs
# Method in brief: as §1
# Botrtyis cinerea (Bc) = assay: In vitro pathogen growth inhibition assay, Bc; settings: 48 h, ≥90% inhibition; 48 hours vs 2% DMSO control; read-out: Compound Concentration (ppm) sufficient for ≥90% inhibition of growth, Bc
# Method in brief: (§2)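 Spores in 17% V8 liquid medium, or 1.5 mm Rs mycelial plugs in ¼ PDB, incubated with compound; final concentration checked by OD600 for precipitation. OD readings at 24 and 48 h, blank-subtracted, plus visual ratings; value is concentration giving ≥90% growth inhibition.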
# Septoria tritici (St) = assay: In vitro pathogen growth inhibition assay, St; settings: Zymoseptoria tritici, 48 h, ≥90% inhibition; 48 hours vs 2% DMSO control; read-out: Compound Concentration (ppm) sufficient for ≥90% inhibition of growth, St
# Method in brief: as §2
# Diplodia maydis (Dm) = assay: In vitro pathogen growth inhibition assay, Dm; settings: Stenocarpella maydis, 48 h, ≥90% inhibition; 48 hours vs 2% DMSO control; read-out: Compound Concentration (ppm) sufficient for ≥90% inhibition of growth, Dm
# Method in brief: as §1
# [2] = test system: Collectotrichum graminicola (Cg); assay: In vitro pathogen growth inhibition assay, Cg; settings: 48 h, ≥90% inhibition; 48 hours vs 2% DMSO control; read-out: Compound Concentration (ppm) sufficient for ≥90% inhibition of growth, Cg
# Method in brief: as §2
# [3] = test system: Phytophthora capsici (Pc); assay: In vitro pathogen growth inhibition assay, Pc; settings: 48 h, ≥90% inhibition, 48 hours vs 2% DMSO control, read-out: Compound Concentration (ppm) sufficient for ≥90% inhibition of growth, Pc
# Method in brief: as §1
# [4] = test system: Fusarium moniliforme (Fm); assay: In vitro pathogen growth inhibition assay, Fm; settings: Fusarium verticillioides; ≥90% inhibition; 48 hours vs 2% DMSO control; read-out: Compound Concentration (ppm) sufficient for ≥90% inhibition of growth, Fm
# Method in brief: as §2
SMILES,IC90 [1] [µg/mL],IC90 (Rhizoctonia solani (Rs)) [µg/mL],IC90 (Botrtyis cinerea (Bc)) [µg/mL],IC90 (Septoria tritici (St)) [µg/mL],IC90 (Diplodia maydis (Dm)) [µg/mL],IC90 [2] [µg/mL],IC90 [3] [µg/mL],IC90 [4] [µg/mL]
COc1ccc(F)cc1[C@H](Cn1c(=O)n(CC(=O)N2CCCC2)c(=O)c2c(C)c(-n3nccn3)sc21)OC(C)C [Compound I-059],≥ 0.08,0.4,0.08,10,0.4,0.4,> 50,0.08
COc1ccc(F)cc1[C@H](Cn1c(=O)n(CC(=O)NC(C)C)c(=O)c2c(C)c(-n3nccn3)sc21)OC(C)C [Compound I-060],0.4,≥ 2,0.4,> 50,0.4,> 50,> 50,0.08
COc1ccc(F)cc1[C@H](Cn1c(=O)n([C@H](C)C(=O)NC(C)C)c(=O)c2c(C)c(-n3nccn3)sc21)OC(C)C [Compound I-061],0.4,0.4,0.4,> 50,0.4,0.08,> 50,0.08
COc1ccc(F)cc1[C@H](Cn1c(=O)n(C(C)C(=O)N2CCCC2)c(=O)c2c(C)c(-n3cccn3)sc21)OC(C)C (some centres unmarked) [Compound I-062],0.4,2,0.4,50,1.2,0.4,50,0.08
COc1ccc(F)cc1[C@H](Cn1c(=O)n([C@@H](C)C(=O)N2CCCC2)c(=O)c2c(C)c(-n3cccn3)sc21)OC(C)C [Compound I-063],0.4,2,0.4,≥ 50,≥ 0.4,0.4,> 50,0.08
COc1ccc(F)cc1[C@H](Cn1c(=O)n(C(C)(C)C(=O)NC(C)C)c(=O)c2c(C)c(-n3nccn3)sc21)OC[C@@H](C)O [Compound I-065],0.4,≥ 0.08,2,≥ 2,0.4,0.4,≥ 2,0.08
COc1ccc(F)cc1[C@H](Cn1c(=O)n(C(C)(C)C(=O)NC(C)C)c(=O)c2c(C)c(-n3nccn3)sc21)OC[C@H](C)O [Compound I-066],0.4,≥ 0.4,≥ 0.4,≥ 10,≥ 0.4,≥ 0.4,50,0.08
COc1ccc(F)cc1[C@H](Cn1c(=O)n(C(C)(C)C(=O)N2CC=CC2)c(=O)c2c(C)c(-n3nccn3)sc21)OC(C)C [Compound I-067],0.4,0.4,0.4,≥ 2,0.08,0.08,> 50,0.08
COCCOc1ccc(F)cc1[C@H](Cn1c(=O)n(C(C)(C)C(=O)NC(C)C)c(=O)c2c(C)c(-n3nccn3)sc21)OC(C)C [Compound I-068],0.4,0.4,0.4,≥ 50,≥ 0.08,0.4,> 50,0.08
Cc1c(-n2nccn2)sc2c1c(=O)n(C(C)(C)C(=O)NC(C)C)c(=O)n2C[C@H](OC(C)C)c1cc(F)ccc1OCC1COC1 [Compound I-069],0.4,≥ 0.4,0.4,≥ 50,0.4,0.4,> 50,0.08
Cc1c(-n2nccn2)sc2c1c(=O)n(C(C)(C)C(=O)NC(C)C)c(=O)n2C[C@H](OC(C)C)c1cc(F)ccc1OCC#N [Compound I-070],0.08,2,0.4,≥ 10,0.4,2,> 50,0.08
Cc1c(-n2nccn2)sc2c1c(=O)n(C(C)(C)C(=O)NC(C)C)c(=O)n2C[C@H](OC(C)C)c1cc(F)ccc1OCCO [Compound I-071],0.4,≥ 0.08,0.4,≥ 50,0.4,0.4,≥ 50,0.08
COc1ccc(F)cc1[C@H](Cn1c(=O)n(C(C)(C)C(=O)NC(C)C)c(=O)c2c(C)c(-n3nccn3)sc21)OCC(C)(C)O [Compound I-072],0.4,≥ 0.4,2,≥ 2,0.4,≥ 0.08,10,0.08
COc1ccc(F)cc1[C@H](Cn1c(=O)n(C(C)(C)C(=O)N2CCCC2)c(=O)c2c(C)c(-n3nccn3)sc21)OCC(C)(C)O [Compound I-073],0.4,≥ 0.4,2,≥ 10,2,0.4,> 50,0.08
COc1ccc(F)cc1[C@H](Cn1c(=O)n(C(C)(C)C(=O)N2CC=CC2)c(=O)c2c(C)c(-n3nccn3)sc21)OC1CCOCC1 [Compound I-075],0.4,0.08,2,> 50,0.4,0.4,> 50,0.08
COCCOc1ccc(F)cc1[C@H](Cn1c(=O)n(C(C)(C)C(=O)NC(C)C)c(=O)c2c(C)c(-n3nccn3)sc21)OC1CCOCC1 [Compound I-076],0.4,0.08,2,≥ 10,0.4,0.4,≥ 50,0.08
C=CCO[C@@H](Cn1c(=O)n(C(C)(C)C(=O)NC(C)C)c(=O)c2c(C)c(-n3nccn3)sc21)c1cc(F)ccc1OC [Compound I-077],0.4,0.4,2,> 50,2,2,> 50,0.08
COc1ccc(F)cc1[C@H](Cn1c(=O)n(C(C)(C)C(=O)NC2CC2)c(=O)c2c(C)c(-n3nccn3)sc21)OC(C)C [Compound I-078],0.4,0.4,2,> 50,2,2,> 50,0.08
C=CCNC(=O)C(C)(C)n1c(=O)c2c(C)c(-n3nccn3)sc2n(C[C@H](OC2CCOCC2)c2cc(F)ccc2OC)c1=O [Compound I-079],0.4,0.4,2,> 50,2,2,> 50,0.08
